Read-outs that look alike come from different tables or passages of the source.

This experiment addresses human TLR2 (Homo sapiens, UniProt O60603). Briefly: Reporter gene assay: HEK 293 cells stably transfected with human TLR2 and NF-kB-driven luciferase reporter. The settings on record: for Emax: HEK293, 7 h, read-out: Hek-TLR2 (% Eff); for EC50: HEK 293 stably transfected with human TLR2 and pNifty-Luciferase, 7 hours incubation, concentration giving 50% of maximal signal.

human TLR2, sequence (O60603 21-784): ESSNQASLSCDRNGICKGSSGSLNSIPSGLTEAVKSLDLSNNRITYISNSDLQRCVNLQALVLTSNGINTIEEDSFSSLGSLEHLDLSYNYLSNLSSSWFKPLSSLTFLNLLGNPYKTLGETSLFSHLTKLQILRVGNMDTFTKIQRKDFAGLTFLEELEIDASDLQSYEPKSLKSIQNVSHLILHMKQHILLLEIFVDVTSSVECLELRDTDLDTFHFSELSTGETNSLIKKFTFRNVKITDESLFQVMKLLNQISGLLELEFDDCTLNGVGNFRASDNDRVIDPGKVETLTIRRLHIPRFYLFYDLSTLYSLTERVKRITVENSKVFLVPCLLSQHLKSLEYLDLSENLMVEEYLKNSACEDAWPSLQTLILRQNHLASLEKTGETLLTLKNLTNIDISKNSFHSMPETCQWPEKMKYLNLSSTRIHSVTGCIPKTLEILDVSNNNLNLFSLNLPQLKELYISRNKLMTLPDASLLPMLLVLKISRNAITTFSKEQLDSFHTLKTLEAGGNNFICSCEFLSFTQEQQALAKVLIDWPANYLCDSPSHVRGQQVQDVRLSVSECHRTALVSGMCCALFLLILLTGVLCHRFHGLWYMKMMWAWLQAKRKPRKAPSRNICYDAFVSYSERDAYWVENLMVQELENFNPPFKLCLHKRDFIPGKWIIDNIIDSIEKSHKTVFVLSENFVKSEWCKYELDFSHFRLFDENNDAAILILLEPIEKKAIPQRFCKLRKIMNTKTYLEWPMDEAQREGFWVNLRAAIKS
Method: As a control assay, normal Hek293 transfected with pNifty-Luc were used. […] Bright-Glo™ Luciferase assay buffer and substrate were supplied by Promega #E263B and #E264B (assay substrate and buffer respectively). 384 well clear-bottom plates were supplied by Greiner bio-one (#789163-G) and were custom bar-coded plates.
Cells were plated at 25,000 cells/well in 384-well plates in a final volume of 50 μl of media. Cells were allowed to adhere to the plates after overnight (18 hours) culture at 37° C. and 5% CO2. Serially diluted experimental and positive control compounds were then dispensed to each well and incubated for 7 hours at 37° C. and 5% CO2. Cells stimulated with DMSO alone also serve as negative controls. After the incubation, 30 μl of the pre-mix assay buffer and substrate buffer were added to each well according to manufacturer's instructions. The luminescence signal was read on a CLIPR machine with an integration time of 20 seconds per plate.

For `CCCCCCCCCCCCCCCC(=O)N[C@@H](CSC[C@@H](COC(=O)CCCCCCCCCCC)OC(=O)CCCCCCCCCCC)C(=O)NCCOCCOCCOCCC(=O)O` [Example 87, (15R,19R)-19-(dodecanoyloxy)-14,22-dioxo-15-palmitamido-4,7,10,21-tetraoxa-17-thia-13-azatritriacontan-1-oic acid], the Emax came to 30%. For the setting “Hek-TLR2 μM (EC50)”, this compound yielded an EC50 of 38000 nM.
Taken in the same sequence, the figures for `CCCCCCCCCCCC(=O)OC[C@H](CSC[C@H](N)C(=O)N[C@@H](C)COCCCP(=O)(O)O)OC(=O)CCCCCCCCCCC` [Example 14, (6S,9R,13R)-9-amino-13-(dodecanoyloxy)-6-methyl-8,16-dioxo-4,15-dioxa-11-thia-7-azaheptacosylphosphonic acid] were 153% and 19.2 nM.
Take `CCCCCCCCCCCCOC[C@H](CSC[C@H](N)C(=O)NCCOCCOCCOCCOCCP(=O)(O)O)NC(=O)CCCCCCCCCCC` [Example 79, ((17R,21R)-17-amino-21-dodecanamido-16-oxo-3,6,9,12,23-pentaoxa-19-thia-15-azapentatriacontyl)phosphonic acid]: the Emax was 20%. Moreover, for the setting “Hek-TLR2 μM (EC50)”, a half-maximal effect (EC50) was put at 1860 nM.
In the same order, the values of `CCCCCCCCCCCC(=O)OC[C@H](CSC[C@H](N)C(=O)NCCc1ccc(OCCOCCO)cc1)OC(=O)CCCCCCCCCCC` [Example 41, (R)-3-(((R)-2-amino-3-((4-(2-(2-hydroxyethoxy)ethoxy)phenethyl)amino)-3-oxopropyl)thio)propane-1,2-diyl didodecanoate] are 61% and 15300 nM.
For “(4R,7S,10R,14R)-4-carbamoyl-7-ethyl-6,9,17-trioxo-10-palmitamido-14-(palmitoyloxy)-16-oxa-12-thia-5,8-diazadotriacontan-1-oic acid [Example 47]”, the “Hek-TLR2 (% Eff)” value (% Eff relative to Pam3CSK4, HEK 293 human TLR2 NF-kB luciferase) is “(88%)”. In addition, the EC50 (read-out: Hek-TLR2 μM (EC50)) amounted to 565 nM.
As for `CCCCCCCCCCCCCCCC(=O)N[C@@H](CSC[C@@H](COC(=O)CCCCCCCCCCC)OC(=O)CCCCCCCCCCC)C(=O)N[C@@H](C)C(=O)N[C@H](CCC(=O)O)C(N)=O` [Example 75, (4R,7S,10R,14R)-4-carbamoyl-14-(dodecanoyloxy)-7-methyl-6,9,17-trioxo-10-palmitamido-16-oxa-12-thia-5,8-diazaoctacosan-1-oic acid], the Emax worked out at 58%. This compound showed an EC50 (Hek-TLR2 μM (EC50)) of 960 nM.
In the same order, the values of `CCCCCCCCCCCCCCCCOC[C@H](CSC[C@H](N)C(=O)N[C@@H](CC)C(=O)N[C@H](CCC(=O)O)C(N)=O)OCCCCCCCCCCCCCCCC` [Example 10, (4R,7S,10R,14R)-10-amino-4-carbamoyl-7-ethyl-14-(hexadecyloxy)-6,9-dioxo-16-oxa-12-thia-5,8-diazadotriacontan-1-oic acid] are 72% and 14100 nM.
For `CCCCCCCCCCCC(=O)OC[C@H](CSC[C@H](N)C(=O)NCCCCN)OC(=O)CCCCCCCCCCC` [Example 57, (R)-3-(((R)-2-amino-3-((4-aminobutyl)amino)-3-oxopropyl)thio)propane-1,2-diyl didodecanoate], the Emax worked out at 111%. The EC50 (Hek-TLR2 μM (EC50)) came out at 1040 nM.
Regarding `CCCCCCCCCCNC(=O)OC[C@H](CSC[C@H](NC(=O)CCCCCC)C(=O)NCCOCCOCCOCCP(=O)(O)O)OC(=O)NCCCCCCCCCC` [Example 85, ((14R,18R)-18-((decylcarbamoyl)oxy)-14-heptanamido-13,21-dioxo-3,6,9,20-tetraoxa-16-thia-12,22-diazadotriacontyl)phosphonic acid], the Emax was determined as 71%. The same compound gave a half-maximal effective concentration (EC50) (Hek-TLR2 μM (EC50)) of 2170 nM.
In the case of `CCCCCCCCCCCCCCCC(=O)N[C@@H](CSC[C@@H](COC(=O)NCCCCCCCCCC)OC(=O)NCCCCCCCCCC)C(=O)NCCOCCOCCOCCP(=O)(O)O` [Example 39, (14R,18R)-18-(decylcarbamoyloxy)-13,21-dioxo-14-palmitamido-3,6,9,20-tetraoxa-16-thia-12,22-diazadotriacontylphosphonic acid], the Emax amounted to 92%. For the same compound, a half-maximal response (Hek-TLR2 μM (EC50)) (EC50) required 2640 nM.
Taken in the same sequence, the figures for `CCCCCCCCCCCCCCCC(=O)N[C@@H](CSC[C@@H](COC(=O)CCCCCCCCCCC)OC(=O)CCCCCCCCCCC)C(=O)N[C@@H](CO)C(=O)NCCOCCOCCOCCC(=O)O` [Example 89, (15S,18R,22R)-22-(dodecanoyloxy)-15-(hydroxymethyl)-14,17,25-trioxo-18-palmitamido-4,7,10,24-tetraoxa-20-thia-13,16-diazahexatriacontan-1-oic acid] were 104% and 4940 nM.
Consider `CCCCCCCCCCCCOC[C@H](CSC[C@H](N)C(=O)NCCOCCOCCOCCC(=O)O)OCCCCCCCCCCCC` [Example 32, (15R,19R)-15-amino-19-(dodecyloxy)-14-oxo-4,7,10,21-tetraoxa-17-thia-13-azatritriacontan-1-oic acid], for which the Emax is 78%. This compound also yielded an EC50 (Hek-TLR2 μM (EC50)) of 9130 nM.
In the same order, the values of `CCCCCCCCCCCCOC[C@H](CSC[C@H](N)C(=O)NCCOCCOCCOCCP(=O)(O)O)OC(=O)NCCCCCCCCCC` [Example 90, ((14R,18R)-14-amino-18-((dodecyloxy)methyl)-13,20-dioxo-3,6,9,19-tetraoxa-16-thia-12,21-diazahentriacontyl)phosphonic acid] are 47% and greater than 100000 nM.
Taken in the same sequence, the figures for `CCCCCCCCCCCC(=O)OC[C@H](CSC[C@H](N)C(=O)N[C@@H](CC)COCC(=O)O)OC(=O)CCCCCCCCCCC` [Example 13, (5S,8R,12R)-8-amino-12-(dodecanoyloxy)-5-ethyl-7,15-dioxo-3,14-dioxa-10-thia-6-azahexacosan-1-oic acid] were 118% and 6500 nM.
In the case of `CCCCCCCCCCCC(=O)OC[C@H](CSC[C@H](N)C(=O)NCCCn1ccnc1)OC(=O)CCCCCCCCCCC` [Example 60, (R)-3-(((R)-3-((3-(1H-imidazol-1-yl)propyl)amino)-2-amino-3-oxopropyl)thio)propane-1,2-diyl didodecanoate], the Emax came out at 119%. The same compound returned an EC50 (Hek-TLR2 μM (EC50)) of 410 nM.
In the same order, the values of `CCCCCCCCCCCCCCCC(=O)N[C@@H](CSC[C@@H](COC(=O)CCCCCCCCCCC)OC(=O)CCCCCCCCCCC)C(=O)NCCOCCOCCOCCP(=O)(O)O` [Example 34, ((14R,18R)-18-(dodecanoyloxy)-13,21-dioxo-14-palmitamido-3,6,9,20-tetraoxa-16-thia-12-azadotriacontyl)phosphonic acid] are 47% and greater than 100000 nM.
Taken in the same sequence, the figures for `CCCCCCCCCCCC(=O)OC[C@H](CSC[C@H](N)C(=O)NC(C)(C)CO)OC(=O)CCCCCCCCCCC` [Example 43, (R)-3-(((R)-2-amino-3-((1-hydroxy-2-methylpropan-2-yl)amino)-3-oxopropyl)thio)propane-1,2-diyl didodecanoate] were 54% and 15500 nM.
Taken in the same sequence, the figures for `CCCCCCCCCCNC(=O)OC[C@H](CSC[C@H](N)C(=O)NCCOCCOCCOCCC(=O)O)OC(=O)NCCCCCCCCCC` [Example 37, (15R,19R)-15-amino-19-(decylcarbamoyloxy)-14,22-dioxo-4,7,10,21-tetraoxa-17-thia-13,23-diazatritriacontan-1-oic acid] were 7% and 6210 nM.
On to `CCCCCCCCCCCC(=O)OC[C@H](CSC[C@H](N)C(=O)NCCCC(C)(C)CO)OC(=O)CCCCCCCCCCC` [Example 72, (R)-3-(((R)-2-amino-3-((5-hydroxy-4,4-dimethylpentyl)amino)-3-oxopropyl)thio)propane-1,2-diyl didodecanoate], for which the Emax was determined as 49%. Further, under “Hek-TLR2 μM (EC50)”, the response was half-maximal at 30700 nM (EC50).
In the same order, the values of `CCCCCCCCCCCCOC[C@H](CSC[C@H](N)C(=O)NCCOCCOCCOCCOCCP(=O)(O)O)OCCCCCCCCCCCC` [Example 78, ((17R,21R)-17-amino-21-(dodecyloxy)-16-oxo-3,6,9,12,23-pentaoxa-19-thia-15-azapentatriacontyl)phosphonic acid] are 35% and 1430 nM.
Taken in the same sequence, the figures for `CCCCCCCCCCCC(=O)OC[C@H](CSC[C@H](N)C(=O)NCCCCCCN)OC(=O)CCCCCCCCCCC` [Example 56, (R)-3-(((R)-2-amino-3-((6-aminohexyl)amino)-3-oxopropyl)thio)propane-1,2-diyl didodecanoate] were 107% and 1220 nM.
Taken in the same sequence, the figures for `CCCCCCCCCCCCOC[C@H](CSC[C@H](N)C(=O)NCCOCCOCCC(F)(F)P(=O)(O)O)OCCCCCCCCCCCC` [Example 22, (12R,16R)-12-amino-16-(dodecyloxy)-1,1-difluoro-11-oxo-4,7,18-trioxa-14-thia-10-azatriacontylphosphonic acid] were 60% and 2450 nM.
In the case of `CCCCCCCCCCCC(=O)OC[C@H](CSC[C@H](N)C(=O)NCCc1ccc(OCCCP(=O)(O)O)cc1)OC(=O)CCCCCCCCCCC` [Example 16, 3-(4-(2-((R)-2-amino-3-((R)-2,3-bis(dodecanoyloxy)propylthio)propanamido)ethyl)phenoxy)propylphosphonic acid], the Emax came out at 107%. The same compound came in with an EC50 (Hek-TLR2 μM (EC50)) of 410 nM.
In the same order, the values of `CCCCCCCCCCNC(=O)OC[C@H](CSC[C@H](NC(=O)CCCCC)C(=O)NCCOCCOCCOCCP(=O)(O)O)OC(=O)NCCCCCCCCCC` [Example 92, ((14R,18R)-18-((decylcarbamoyl)oxy)-14-hexanamido-13,21-dioxo-3,6,9,20-tetraoxa-16-thia-12,22-diazadotriacontyl)phosphonic acid] are 99% and 280 nM.
Take `CCCCCCCCCCCCCCCC(=O)N[C@@H](CSC[C@@H](COC(=O)CCCCCCCCCCC)OC(=O)CCCCCCCCCCC)C(=O)NCCCOCCOCCOCCCNC(=O)CCC1OCCO1` [Example 40, (20R,24R)-1-(1,3-dioxolan-2-yl)-3,19-dioxo-20-palmitamido-8,11,14-trioxa-22-thia-4,18-diazapentacosane-24,25-diyl didodecanoate]: the Emax was 25%. The same compound showed a half-maximal effective concentration (EC50) (Hek-TLR2 μM (EC50)) of 96 nM.

Source of the values: US9365506B2, “Compounds and compositions as TLR2 agonists” (NOVARTIS AG, priority 2010, dated 2016).
